The test system of test [1] is pentagastrin-induced gastric acid secretion. The conditions noted are these: Brown et al. 1977; cited from earlier work.
The subject of test [2] is growth hormone, insulin and glucagon. The conditions noted are these: Brown et al. 1977; cited from earlier work.
In test [3] the test system is basal gastric acid secretion. As to the kind of experiment: Gastric antisecretory activity in unanesthetized gastric fistula rat, i.v. The conditions noted are these: 200 μg i.v. single bolus. Format: in vivo. The method, then: The gastric antisecretory effect of somatostatin analogs was studied in a model which utilizes unanesthetized rats.
All operative techniques were carried out on fasted female albino rats (average weight 250 g), under Penthrane anesthesia, using montraumatic microsurgical instruments, polyethylene tubing and a special adhesive. The basic model used in the present studies consisted of:
This allowed adequate hydration through the constant infusion of 0.15M NaCl (at the rate of 1.4 ml/hr.). This catheter was also used for i.v. administration of solutions of the test compounds.
(b) Catheterization of the stomach. A cannula in the forestomach allowed washing of the gastric lumen with saline (before experiments). Water (0.2 ml/10 min) was infused through this catheter during the experimental periods. This was done to prevent obstruction of the "collecting" cannula (see below) by gastric debris and to obtain a practical workable volume to measure several parameters of gastric secretion. A second cannula was positioned in the glandular stomach, close to the greater curvature, in the more dependent site and in such a way as to allow collection, by gravity, of all fluids emerging from the stomach. Passage of these secretions through a small glass container permitted continuous recording of pH by means of a glass microelectrode. A fraction collector was used to simultaneously obtain the gastric secretions.
(c) Catheterization of the lower part of the common bile duct to procure mixed secretions of bile and pancreatic juice as a function of time. This was done with the purpose of examining the effect of these compounds, if any, on bile flow.
This preparation is suitable for the bioassay of microgram quantities of gastric secretory depressants in which each animal serves as its own control. The rats (250 g b.w.) were allowed to attain a period of stabilized gastric acid output (for one hour) and were then injected intravenously (100 μl) with 200 μg of the test compound. This single bolus injection was immediately followed by a rinsing injection of 50 μl saline, thus insuring quantitative delivery of the dose. The pH was recorded continuously for 1 hour before and 1 1/2 hour after the i.v. injection of the test compounds. The gastric secretions were collected over 10-minute intervals before and after dosage. Four parameters of gastric secretion were evaluated: (a) changes in the negative logarithm of the hydrogen ion activity (pH, determined by the glass electrode either by a continuous trace or in samples taken at 10-minute intervals); (b) volume; (c) total acid concentration (μEq/ml); and d) total acid output (μEq/10-min periods).

The test system of test [4] is gastric secretion. In words: Gastric antisecretory activity after intragastric administration, unanesthetized rat. Format: in vivo. The conditions noted are these: 8 mg/kg b.w. intragastrically, saline solution. As for the experimental part: The unanesthetized rat model was used in an exact manner to that employed in the evaluation of gastric antisecretory activity after parenteral administration described above in A, with the following modification. Following recording of the gastric pH for 1 hour, drainage of the gastric secretions was interrupted by means of a forceps. Saline solutions (total volume = 1000 μl) of Compound N (at the dose of 8 mg/kg b.w.) were then intragastrically administered, via the canula in the avascular stomach, which was closed. Fifteen minutes later, the catheter draining the gastric secretions was reopened; the water infusion through the catheter in the forestomach was simultaneously reestablished. The pH was now recorded continuously for 1 1/2 hours. Samples of gastric juice were taken before and after treatment, and analyzed for the usual four parameters of gastric secretion.

Non-standard residues stand in square brackets, D forms with d. Residues, ends and D or L forms follow the SMILES beside them. Gly(N-2-aminoethyl) = NCCNCC(=O)O

With (D-Trp^8)-somatostatin, the “potency in inhibition of pentagastrin-induced gastric acid secretion relative to somatostatin” value in test [1] is “less potent”. The “potency in inhibition of growth hormone, insulin and glucagon relative to somatostatin” value in test [2] is given as “higher potency than somatostatin”. Take `C[C@@H](O)[C@@H]1NC(=O)[C@H](CCCCN)NC(=O)[C@H](Cc2c[nH]c3ccccc23)NC(=O)[C@H](Cc2ccccc2)NC(=O)[C@H](Cc2ccccc2)NC(=O)[C@H](CC(N)=O)NC(=O)[C@H](CCCCN)NC(=O)CN(CCN)C(=O)[C@H](CO)NC(=O)[C@H]([C@@H](C)O)NC(=O)[C@H](Cc2ccccc2)NC1=O` [Compound D, Cyclo [Aminoethylglycyl-L-lysyl-L-asparaginyl-L-phenylalanyl-L-phenylalanyl-L-tryptophyl-L-lysyl-L-threonyl-L-phenylalanyl-L-threonyl-L-seryl]] (cyclo(FFWKTFTS[Gly(N-2-aminoethyl)]KN)): the “gastric antisecretory activity (pH and acid concentration), in words, relative to somatostatin” value in test [3] is on record as “erratic activity”. On the same count and under the same terms, the result for `C[C@H](N)C(=O)NCC(=O)N[C@@H](CS)C(=O)N[C@@H](CCCCN)C(=O)N[C@@H](CC(N)=O)C(=O)N[C@@H](Cc1ccccc1)C(=O)N[C@@H](Cc1ccccc1)C(=O)N[C@@H](Cc1c[nH]c2ccccc12)C(=O)N[C@@H](CCCCN)C(=O)N[C@H](C(=O)N[C@@H](Cc1ccccc1)C(=O)N[C@H](C(=O)N[C@@H](CO)C(=O)N[C@@H](CS)C(=O)O)[C@@H](C)O)[C@@H](C)O` [Compound B, HAlaGlyCysLysAsnPhePheTrpLysThrPheThrSerCysOH] reads “as active as the oxidized, cyclic somatostatin”; that for `C[C@H](NC(=O)CNCCN)C(=O)NCC(=O)N[C@@H](CS)C(=O)N[C@@H](CCCCN)C(=O)N[C@@H](CC(N)=O)C(=O)N[C@@H](Cc1ccccc1)C(=O)N[C@@H](Cc1ccccc1)C(=O)N[C@@H](Cc1c[nH]c2ccccc12)C(=O)N[C@@H](CCCCN)C(=O)N[C@H](C(=O)N[C@@H](Cc1ccccc1)C(=O)N[C@H](C(=O)N[C@@H](CO)C(=O)N[C@@H](CS)C(=O)O)[C@@H](C)O)[C@@H](C)O` [Compound E, Aminoethylglycyl-L-alanyl-glycyl-L-cysteinyl-L-lysyl-L-asparaginyl-L-phenylalanyl-L-phenylalanyl-L-tryptophyl-L-lysyl-L-threonyl-L-phenylalanyl-L-threonyl-L-seryl-L-cysteine], “severely decreases activity”.

In the case of “Aminoethylglycyl-aminoethylglycyl-L-cysteinyl-L-lysyl-L-asparaginyl-L-phenylalanyl-L-phenylalanyl-D-tryptopyl-L-lysyl-L-threonyl-L-phenylalanyl-L-threonyl-L-seryl-L-cysteine [Compound N]”, the “gastric antisecretory activity after intragastric administration” value in test [4] was “active after intragastric administration”. `C[C@@H](O)[C@H](NC(=O)[C@H](Cc1ccccc1)NC(=O)[C@@H](NC(=O)[C@H](CCCCN)NC(=O)[C@H](Cc1c[nH]c2ccccc12)NC(=O)[C@H](Cc1ccccc1)NC(=O)[C@H](Cc1ccccc1)NC(=O)[C@H](CC(N)=O)NC(=O)[C@H](CCCCN)NC(=O)[C@H](CS)NC(=O)CNCCN)[C@@H](C)O)C(=O)N[C@@H](CO)C(=O)N[C@@H](CS)C(=O)N(CCN)CC(=O)O` [Compound J, Aminoethylglycyl-L-cysteinyl-L-lysyl-L-asparaginyl-L-phenylalanyl-L-phenylalanyl-L-tryptophyl-L-lysyl-L-threonyl-L-phenylalanyl-L-threonyl-L-seryl-L-cysteinyl-aminoethylglycine] (H-[Gly(N-2-aminoethyl)]CKNFFWKTFTSC[Gly(N-2-aminoethyl)]-OH): the “gastric antisecretory activity (pH and acid concentration), in words, relative to somatostatin” value in test [3] is given as “less active than somatostatin”.

The record behind these values is US4145337A, “Aminoethylglycine containing polypeptides” (Hoffmann-La Roche Inc., priority 1977, dated 1979).
